The values that follow come from patent publication US20230129438A1, “IMMUNOMODULATING IMINE-OXAZOLINE AZALIDES” (Zoetis Services LLC, priority 2020, published 2023).

One data set relates to P. multocida. Description: In-vitro MIC model, P. multocida. It counts as cell-based.
In a further data set the test system is M. haemolytica. The experiment in a line: In-vitro MIC model, M. haemolytica. It counts as cell-based.
The test system of the next data set is E. coli. The experiment in a line: In-vitro MIC model, E. coli.
The subject of another data set is S. aureus. The experiment in a line: In-vitro MIC model, S. aureus. The note with it: S. aureus ATCC 29213.
In the next data set the test system is IL-1β. Description: Bovine whole blood assay, IL-1β. The format is cell-based. The note with it: drug concentration giving overstimulation of IL-1β over LPS (cellular toxicity signal). Here is the method:
(§1) (protected from light) for 30 minutes.

The subject of data set [1] is BRD pathogens, M. haemolytica and P. multocida. Description: In-vitro MIC model, BRD pathogen screening panel. It counts as cell-based. The note with it: asterisk = at least one BRD bacterial isolate.
A further data set relates to TNF-α. The experiment in a line: Bovine whole blood assay, LPS-induced TNF-α. The format is cell-based. The note with it: LPS 1 μg/mL. The protocol: as §1
The subject of the next data set is P. multocida 46572. The experiment in a line: In vivo mouse lung infection challenge model (murine efficacy model). The note with it: 20 mg/kg subcutaneous, CD-1 mice, intranasal challenge, to Day 10; approximate (~%), harmonized relative to vehicle and M9.
Where [2] appears, read: P. multocida 46572, murine efficacy challenge strain.
[3] abbreviates: M. haemolytica 46571, bovine efficacy challenge strain.

Marks after values point to notes of the source that are not given here.

By MIC is commonly meant the lowest concentration that inhibits growth of the organism. A higher MIC goes with a less susceptible organism. One may read the IC50 as the concentration needed to halve the response being measured. Read a high IC50 as a need for much substance.

For the compound `CC[C@H]1OC(=O)[C@H](C)[C@@H](O[C@H]2C[C@@](C)(OC)[C@](O)(CN3CCOCC3)[C@H](C)O2)[C@H](C)[C@@H](O[C@@H]2O[C@H](C)C[C@H]3[C@H]2OC(=Nc2ccccc2)N3C)[C@](C)(O)C[C@@H](C)CN[C@H](C)[C@@H](O)[C@]1(C)O` (mixture of isomers) [Example B-3, (E/Z)-(2R,3S,4R,5R,8R,10R,11R,12S,13S,14R)-11-(((3aR,4S,6R,7aS)-1,6-dimethyl-2-(phenylimino)hexahydro-2H-pyrano[4,3-d]oxazol-4-yl)oxy)-2-ethyl-3,4,10-trihydroxy-13-(((2R,4R,5S,6S)-5-hydroxy-4-methoxy-4,6-dimethyl-5-(morpholinomethyl)tetrahydro-2H-pyran-2-yl)oxy)-3,5,8,10,12,14-hexamethyl-1-oxa-6-azacyclopentadecan-15-one], the MIC against P. multocida (setting [2]), against P. multocida (P. multocida ATCC 43137), in the data set with M. haemolytica (M. haemolytica 12726), against M. haemolytica (setting [3]), against M. haemolytica (M. haemolytica ATCC 33396) and against E. coli (E. coli ATCC 25922) was over 64 µg/mL throughout. Besides, the MIC in the data set with E. coli (E. coli W3110) and with S. aureus was over 64 µg/mL in each case.

Turning to `CCCNC[C@]1(O)[C@H](C)O[C@@H](O[C@H]2[C@H](C)[C@@H](O[C@@H]3O[C@H](C)C[C@H]4[C@H]3OC(=Nc3ccccc3)N4Cc3ccccc3)[C@](C)(O)C[C@@H](C)CN[C@H](C)[C@@H](O)[C@](C)(O)[C@@H](CC)OC(=O)[C@@H]2C)C[C@@]1(C)OC` (mixture of isomers) [Example A-33, (E/Z)-(2R,3S,4R,5R,8R,10R,11R,12S,13S,14R)-11-(((3aR,4S,6R,7aS)-1-benzyl-6-methyl-2-(phenylimino)hexahydro-2H-pyrano[4,3-d]oxazol-4-yl)oxy)-2-ethyl-3,4,10-trihydroxy-13-(((2R,4R,5S,6S)-5-hydroxy-4-methoxy-4,6-dimethyl-5-((propylamino)methyl)tetrahydro-2H-pyran-2-yl)oxy)-3,5,8,10,12,14-hexamethyl-1-oxa-6-azacyclopentadecan-15-one], the “IL-Iβ OS of LPS” value with IL-1β amounted to 2 µM. Moreover, in data set [1], the “MIC flag on Ex# (Table A)” value is given as “A-33* (an MIC ≤ 64 μg/mL for at least one BRD bacterial isolate)”. The IC50 with TNF-α is 8 µM.

`CCCNC[C@]1(O)[C@H](C)O[C@@H](O[C@H]2[C@H](C)[C@@H](O[C@@H]3O[C@H](C)C[C@H]4[C@H]3OC(=Nc3ccc(OC)cc3)N4C)[C@](C)(O)C[C@@H](C)CN[C@H](C)[C@@H](O)[C@](C)(O)[C@@H](CC)OC(=O)[C@@H]2C)C[C@@]1(C)OC` (mixture of isomers) [Example A-9, (E/Z)-(2R,3S,4R,5R,8R,10R,11R,12S,13S,14R)-2-ethyl-3,4,10-trihydroxy-13-(((2R,4R,5S,6S)-5-hydroxy-4-methoxy-4,6-dimethyl-5-((propylamino)methyl)tetrahydro-2H-pyran-2-yl)oxy)-11-(((3aR,4S,6R,7aS)-2-((4-methoxyphenyl)imino)-1,6-dimethylhexahydro-2H-pyrano[4,3-d]oxazol-4-yl)oxy)-3,5,8,10,12,14-hexamethyl-1-oxa-6-azacyclopentadecan-15-one]: in the data set on P. multocida 46572, the “% Survival” value is given as 64%. Also, in the data set on IL-1β, the “IL-Iβ OS of LPS” value came to 13 µM. Further, the MIC in the data set with P. multocida (setting [2]), in the data set with P. multocida (P. multocida ATCC 43137), against M. haemolytica (M. haemolytica 12726), with M. haemolytica (setting [3]), in the data set on M. haemolytica (M. haemolytica ATCC 33396) and in the data set with E. coli (E. coli ATCC 25922) was over 64 µg/mL in each case. For the same compound, the MIC against E. coli (E. coli W3110) and with S. aureus was over 64 µg/mL each time. The compound further came in with an IC50 in the data set on TNF-α of under 5 µM.

With `CC[C@H]1OC(=O)[C@H](C)[C@@H](O[C@H]2C[C@@](C)(OC)[C@@H](O)[C@H](C)O2)[C@H](C)[C@@H](O[C@@H]2O[C@H](C)C[C@H]3[C@H]2OC(=Nc2ccc(F)cc2)N3C)[C@](C)(O)C[C@@H](C)CN[C@H](C)[C@@H](O)[C@]1(C)O` (mixture of isomers) [Example C-1, (E/Z)-(2R,3S,4R,5R,8R,10R,11R,12S,13S,14R)-2-ethyl-11-(((3aR,4S,6R,7aS)-2-((4-fluorophenyl)imino)-1,6-dimethylhexahydro-2H-pyrano[4,3-d]oxazol-4-yl)oxy)-3,4,10-trihydroxy-13-(((2R,4R,5S, 6S)-5-hydroxy-4-methoxy-4,6-dimethyltetrahydro-2H-pyran-2-yl)oxy)-3,5,8,10,12,14-hexamethyl-1-oxa-6-azacyclopentadecan-15-one], the “MIC flag on Ex# (Table C)” value in data set [1] is reported as “C-1* (MIC ≤ 64 μg/mL for at least one BRD bacterial isolate)”.

“(E/Z)-(2R,3S,4R,5R,8R,10R,11R,12S,13S,14R)-2-ethyl-3,4,10-trihydroxy-13-(((2R,4R,5S,6S)-5-hydroxy-4-methoxy-4,6-dimethyltetrahydro-2H-pyran-2-yl)oxy)-11-(((3aR,4S,6R,7aS)-2-((6-methoxypyridin-3-yl)imino)-1,6-dimethylhexahydro-2H-pyrano[4,3-d]oxazol-4-yl)oxy)-3,5,8,10,12,14-hexamethyl-1-oxa-6-azacyclopentadecan-15-one [Example C-2]”: the “MIC flag on Ex# (Table C)” value in data set [1] is listed as “C-2* (MIC ≤ 64 μg/mL for at least one BRD bacterial isolate)”.

On to `CC[C@H]1OC(=O)[C@H](C)[C@@H](O[C@H]2C[C@@](C)(OC)[C@](O)(CNCCCOC)[C@H](C)O2)[C@H](C)[C@@H](O[C@@H]2O[C@H](C)C[C@H]3[C@H]2OC(=Nc2ccc(OC)nc2)N3C)[C@](C)(O)C[C@@H](C)CN[C@H](C)[C@@H](O)[C@]1(C)O` (mixture of isomers) [Example A-27, (E/Z)-(2R,3S,4R,5R,8R,10R,11R,12S,13S,14R)-2-ethyl-3,4,10-trihydroxy-13-(((2R,4R,5S,6S)-5-hydroxy-4-methoxy-5-(((3-methoxypropyl)amino)methyl)-4,6-dimethyltetrahydro-2H-pyran-2-yl)oxy)-11-(((3aR,4S,6R,7aS)-2-((6-methoxypyridin-3-yl)imino)-1,6-dimethylhexahydro-2H-pyrano[4,3-d]oxazol-4-yl)oxy)-3,5,8,10,12,14-hexamethyl-1-oxa-6-azacyclopentadecan-15-one], for which the “MIC flag on Ex# (Table A)” value in data set [1] is recorded as “A-27* (an MIC ≤ 64 μg/mL for at least one BRD bacterial isolate)”.

Take `CC[C@H]1OC(=O)[C@H](C)[C@@H](O[C@H]2C[C@@](C)(OC)[C@](O)(CNC(C)C)[C@H](C)O2)[C@H](C)[C@@H](O[C@@H]2O[C@H](C)C[C@H]3[C@H]2OC(=Nc2ccc(OC)nc2)N3C)[C@](C)(O)C[C@@H](C)CN[C@H](C)[C@@H](O)[C@]1(C)O` (mixture of isomers) [Example A-26, (E/Z)-(2R,3S,4R,5R,8R,10R,11R,12S,13S,14R)-2-ethyl-3,4,10-trihydroxy-13-(((2R,4R,5S,6S)-5-hydroxy-5-((isopropylamino)methyl)-4-methoxy-4,6-dimethyltetrahydro-2H-pyran-2-yl)oxy)-11-(((3aR,4S,6R,7aS)-2-((6-methoxypyridin-3-yl)imino)-1,6-dimethylhexahydro-2H-pyrano[4,3-d]oxazol-4-yl)oxy)-3,5,8,10,12,14-hexamethyl-1-oxa-6-azacyclopentadecan-15-one]: the “MIC flag on Ex# (Table A)” value in data set [1] is reported as “A-26* (an MIC ≤ 64 μg/mL for at least one BRD bacterial isolate)”.

`CCCNC[C@]1(O)[C@H](C)O[C@@H](O[C@H]2[C@H](C)[C@@H](O[C@@H]3O[C@H](C)C[C@H]4[C@H]3OC(=NCC(F)(F)F)N4C)[C@](C)(O)C[C@@H](C)CN[C@H](C)[C@@H](O)[C@](C)(O)[C@@H](CC)OC(=O)[C@@H]2C)C[C@@]1(C)OC` (mixture of isomers) [Example A-4, (E/Z)-(2R,3S,4R,5R,8R,10R,11R,12S,13S,14R)-11-(((3aR,4S,6R,7aS)-1,6-dimethyl-2-((2,2,2-trifluoroethyl)imino)hexahydro-2H-pyrano[4,3-d]oxazol-4-yl)oxy)-2-ethyl-3,4,10-trihydroxy-13-(((2R,4R,5S,6S)-5-hydroxy-4-methoxy-4,6-dimethyl-5-((propylamino)methyl)tetrahydro-2H-pyran-2-yl)oxy)-3,5,8,10,12,14-hexamethyl-1-oxa-6-azacyclopentadecan-15-one]: the MIC against P. multocida (setting [2]), with P. multocida (P. multocida ATCC 43137), against M. haemolytica (M. haemolytica 12726), against M. haemolytica (setting [3]), against M. haemolytica (M. haemolytica ATCC 33396) and with E. coli (E. coli ATCC 25922) was over 64 µg/mL each time. The MIC in the data set on E. coli (E. coli W3110) and against S. aureus was over 64 µg/mL in each case.

In the case of `CCCNC[C@]1(O)[C@H](C)O[C@@H](O[C@H]2[C@H](C)[C@@H](O[C@@H]3O[C@H](C)C[C@H]4[C@H]3OC(=Nc3ccc(OC)nc3)N4C)[C@](C)(O)C[C@@H](C)CN[C@H](C)[C@@H](O)[C@](C)(O)[C@@H](CC)OC(=O)[C@@H]2C)C[C@@]1(C)OC` (mixture of isomers) [Example A-17, (E/Z)-(2R,3S,4R,5R,8R,10R,11R,12S,13S,14R)-2-ethyl-3,4,10-trihydroxy-13-(((2R,4R,5S,6S)-5-hydroxy-4-methoxy-4,6-dimethyl-5-((propylamino)methyl)tetrahydro-2H-pyran-2-yl)oxy)-11-(((3aR,4S,6R,7aS)-2-((6-methoxypyridin-3-yl)imino)-1,6-dimethylhexahydro-2H-pyrano[4,3-d]oxazol-4-yl)oxy)-3,5,8,10,12,14-hexamethyl-1-oxa-6-azacyclopentadecan-15-one], the “% Survival” value in the data set with P. multocida 46572 worked out at 37%. Besides, the MIC against P. multocida (setting [2]), against P. multocida (P. multocida ATCC 43137), in the data set with M. haemolytica (M. haemolytica 12726), against M. haemolytica (setting [3]), against M. haemolytica (M. haemolytica ATCC 33396) and against E. coli (E. coli ATCC 25922) was over 64 µg/mL each time. Also, the MIC in the data set on E. coli (E. coli W3110) and in the data set with S. aureus was over 64 µg/mL each time.
